Source: patent publication US12257253B2, “Triamterene or nolatrexed for use in the treatment of phenylketonuria” (SOM INNOVATION BIOTECH, S.A., priority 2019, dated 2025)
Where a name gives a salt, the structure may show the parent alone. Read-outs that look alike come from different tables or passages of the source.

Assays:
wild-type PAH [1] = target: T1, wild-type PAH (Homo sapiens (Human), UniProt P00439); assay: Thermal stability shift assay (DSF); assay type: binding; conditions: compound 30 μM (BH4 43 μM); for ΔTm1 WT PAH: shift of transition midpoint 1 vs NCC; for ΔTm2 WT PAH: shift of transition midpoint 2 vs NCC
Excerpt: (§1) 1. Thermal Stability Shift Assay
(§2) Thórólfsson et al. (Biochemistry, 2002, 41(24), 7573-7585) describe that the thermal denaturation of hPAH occurs in three stages: (i) unfolding of the four regulatory domains, which is responsible for the low-temperature calorimetric transition (ii) unfolding of two (out of the four) catalytic domains, which is responsible for the high-temperature transition; and (iii) irreversible protein denaturation. The most important domain for stabilization is the regulatory domain.
(§3) Thus, to test the compound effect on thermal stability of the target protein a thermal stability shift assay (also called differential scanning fluorimetry (DSF)) was performed [Niesen F. H. et al., Nat Protoc., 2007, 2(9), 2212-2221; Gersting S. W. et al., Human Molecular Genetics, 2010, 19(10), 2039-2049; and Gersting S. W. et al., J. Biol Chem. 2010, 285(40), 30686-30697]. DSF monitors thermal unfolding of proteins in the presence of a fluorescent dye (SYPRO Orange; λexc=465 nm, λem=610 nm) and was performed using a real-time PCR instrument (Applied BioSystems 7000HT Fast Real-Time PCR System). Compounds that increase the midpoints of thermal denaturation (Tm) are considered to bind and stabilize the protein.
(§4) In brief, purified wild-type or Arg261Gln (which is the most frequent mutation responsive to BH4) PAH proteins (diluted in 20 mM NaHEPES, pH 7.0 and 200 mM NaCl, 2 mM DTT to 2 mg/ml) were used at a final concentration of 0.2 mg/ml protein per sample. The compounds were tested at a final concentration of 30 μM. A no compound control (NCC) was used according to the compound solvent at a final concentration of 2% (H2O, DMSO, ethanol, methanol). As a positive control we used the natural cofactor 6R-L-erythro-5,6,7,8-tetrahydrobiopterin (BH4, CAS 69056-38-8) stabilized in 100 mM dithiothreitol (DTT), in a final concentration of 43 μM. To exclude unspecific effects of the compound to the dye, a no protein control (NPC) was added (buffer, compound, dye). The measurement was performed in duplicates and samples were denatured by scanning a temperature range of 20 to 75° C. at a scan rate of 0.5° C./min.
(§5) The data was normalized and the respective Tm values were calculated by bi-phasic equation to determine temperatures at which half denaturation occurred (Software GraphPadPrism). To identify compound specific effects on the thermal stability of the target protein, the reference Tm (NCC) was used to calculate the temperature shift between compound treated and not treated protein (Tm−TmNCC), from duplicates, to provide transition midpoints shifts (ΔTm1 and ΔTm2). Tm1 and Tm2 are the two different transition mid point of the unfolding process of the protein as the tetrameric protein PAH unfolds in two steps due to its domains. A shift in Tm1 of 2° C. reflects a relevant increase in thermal stability on the regulatory domain and, thus, is considered a positive result.

Arg261Gln (R261Q) PAH [2] = target: T2, Arg261Gln (R261Q) PAH (Homo sapiens (Human), UniProt P00439, R261Q); assay: Thermal stability shift assay (DSF); assay type: binding; conditions: compound 30 μM (BH4 43 μM); for ΔTm1 R261Q PAH: shift of transition midpoint 1 vs NCC; for ΔTm2 R261Q PAH: shift of transition midpoint 2 vs NCC
Excerpt: as §1, §2, §3, §4, §5

wild-type PAH [3] = target: T1, wild-type PAH; assay: Isothermal titration calorimetry; assay type: binding; conditions: ITC; for Kd / N (stoichiometry) / ΔG / ΔH / −TΔS: 25° C., WT PAH
Excerpt: 4. Isothermal Titration Calorimetry
Isothermal titration calorimetry (ITC) is a quantitative physical technique used to determine binding affinities of small molecules to proteins or other larger molecules [Freyer M. W. and Lewis E. A., Methods in Cell Biology, 2008, vol. 4, Chapter 4, pages 79-113]. The measurement detects changes of heat generated or absorbed when molecules interact, generate binding kinetics and thermodynamic profile of the molecular interaction. The following parameters are determined: KD (equilibrium dissociation constant), N (stoichiometry of the interaction (mol ligand/mol complex)), ΔH (enthalpy change), ΔG (Gibbs energy), T (temperature) and ΔS (entropy change).
ITC experiments were performed at 25° C. using a MicroCal PEAQ-ITC microcalorimeter (Malvern). PAH proteins were prepared in a HEPES buffer (HEPES 20 mM Hepes, 0.2M NaCl, 1 mM DTT, pH 7.0) containing 5% DMSO, in order to match the final DMSO concentration of the compounds dilutions. The protein concentration used (30 μM) was determined using ultraviolet (UV) absorbance at 280 nm. The compounds ([…]) were prepared using the exact same buffer. Twelve injections of 3 μL of compound/ligand were titrated into the sample cell (containing the protein) over 31 min with a stirring speed of 750 rpm. Data was baseline adjusted by subtracting the background obtained from equivalent injections of compound into the buffer solution. The titration curves were analyzed using MicroCal PEAQ-ITC analytics software (version 1.1.0.1262, Malvern Instruments Ltd.) using a model that assumes a set of identical binding sites where the total heat of the solution is calculated as:
[formula] where n is the number of binding sites, Mt is the total protein concentration in the cell, ΔH is the molar heat of ligand binding, Xt is the total concentration of ligand, and K the binding constant (K=1/KD). The heat released per injection (i), ΔQ(i), is calculated following the equation below, which compensates for the volume that is added in each injection (ΔVi). V0 is the initial volume in the cell.
The parameters, n, K, and ΔH are determined using non-linear square fitting using the Levenberg-Marquardt algorithm.

wild-type PAH [4] = target: T1, wild-type PAH; assay: Phenylalanine hydroxylase residual protein amount (dot blot, COS-7 lysates); assay type: cell-based; conditions: COS-7 cells, compound 10 μM (sepiapterin 5 μM), read-out: PAH protein level (immune blot signal) WT PAH Mean
Experimental: (§6) 3. Phenylalanine Hydroxylase Residual Protein Amount
(§7) The analysis of the residual PAH protein amount was based on the method described in Gersting S. W. et al., Human Molecular Genetics, 2010, 19(10), 2039-2049 with modifications.
(§8) Detection of the residual PAH protein amount was performed as a dot blot using the lysates obtained from the cell culture where transiently transfected COS-7 cells (with wild-type PAH or PAH variant) were exposed for 48 h to compounds. The experiment was carried out from the same samples as used for measuring enzyme activities.
(§9) 2 μl of the lysate were dropped onto the nitrocellulose membrane. The membrane was allowed to air dry at room temperature for 30 min followed by 40 min blocking in 5% milk in TBS-Tween (room temperature). The membrane was incubated with the mouse monoclonal primary antibody specific for PAH (Millipore, Cat. No. MAB5278, 1:1000 dilution in 5% milk in TBS-Tween) for overnight at 4° C. Next, the membrane was washed (3×10 min in TBS-Tween) and incubated with the secondary HRP-conjugated antibody (anti-mouse antibody; Santa Cruz Biotechnology, Inc., Cat. No. sc-2005; 1:1000 dilution in 5% milk in TBS-Tween) followed by thorough washing in TBS-Tween (3×10 min) and distilled water (1×10 min). Blots were visualized with Pierce™ ECL substrate (ThermoFisher Scientific, Cat No. 32106) and chemiluminescence was monitored with a DIANA III Imaging system or ChemiDoc™ MP Imaging System (BioRad). To analyze the compound effect on the PAH protein amount densitometry analysis was performed using ImageJ Software.
(§10) The effect of compound on PAH protein amount was calculated from triplicates. As for determination of the enzyme activity the background of the not transfected cells (NT) was subtracted from the transfected cells (NCC or compound treated). In the next step delta of the NCC versus compound treated cells was calculated. Residual protein amount greater than 100% represents an increase in the stability of the enzyme with respect to NCC.

Arg261Gln (R261Q) PAH [5] = target: T2, Arg261Gln (R261Q) PAH; assay: as above; assay type: cell-based; conditions: COS-7 cells, compound 10 μM (sepiapterin 5 μM), read-out: PAH protein level (immune blot signal) R261Q PAH Mean
Experimental: as §6, §7, §8, §9, §10

T1 sequence (P00439 whole entry): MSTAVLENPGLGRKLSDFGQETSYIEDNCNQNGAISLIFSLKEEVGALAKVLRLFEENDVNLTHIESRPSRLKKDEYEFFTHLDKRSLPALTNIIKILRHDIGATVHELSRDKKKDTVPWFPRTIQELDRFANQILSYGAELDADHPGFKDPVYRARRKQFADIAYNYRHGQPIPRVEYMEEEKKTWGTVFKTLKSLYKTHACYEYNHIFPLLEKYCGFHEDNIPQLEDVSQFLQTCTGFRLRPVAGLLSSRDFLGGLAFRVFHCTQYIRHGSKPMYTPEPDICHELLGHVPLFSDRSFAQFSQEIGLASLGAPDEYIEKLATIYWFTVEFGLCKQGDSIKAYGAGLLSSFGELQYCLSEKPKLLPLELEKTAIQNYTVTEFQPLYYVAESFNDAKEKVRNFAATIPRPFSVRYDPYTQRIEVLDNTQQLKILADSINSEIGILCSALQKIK
T2 sequence (P00439 whole entry R261Q): as the sequence (P00439 whole entry) above, with R261Q counted along it

| Structure (SMILES) | ΔTm1 WT PAH (wild-type PAH [1]) | ΔTm2 WT PAH (wild-type PAH [1]) | ΔTm1 R261Q PAH (Arg261Gln (R261Q) PAH [2]) | ΔTm2 R261Q PAH (Arg261Gln (R261Q) PAH [2]) | PAH protein level (% of control) at 10 µM (wild-type PAH [4]; 48 h) | PAH protein level (% of control) at 10 µM (Arg261Gln (R261Q) PAH [5]; 48 h) | other results |
| --- | --- | --- | --- | --- | --- | --- | --- |
| C=CCn1c(=O)n([C@@H]2O[C@H](CO)C(O)C2O)c2nc(N)[nH]c(=O)c21 (stereo in doubt) [Loxoribine, 2-amino-9-[(2R,3R,4S,5R)-3,4-dihydroxy-5-(hydroxymethyl)oxolan-2-yl]-7-prop-2-enyl-3H-purine-6,8-dione] | 3.57 °C | – | – | – | – | – | – |
| C[C@H](O)[C@H](O)[C@H]1CNc2[nH]c(N)nc(=O)c2N1 [BH4, 6R-L-erythro-5,6,7,8-tetrahydrobiopterin] | 0.20 °C | 1.88 °C | 2.54 °C | 12.17 °C | – | – | Kd (wild-type PAH [3]): 40.7 ± 14.1 µM; N (stoichiometry) (wild-type PAH [3]): 0.936 ± 0.3 sites; ΔG (wild-type PAH [3]): -6 kcal/mol; ΔH (wild-type PAH [3]): -17.9 ± 7.91 kcal/mol; −TΔS (wild-type PAH [3]): 11.9 kcal/mol |
| CCc1cccc2cc(C(O)CNC(C)(C)C)oc12 (centres unmarked) [Bufuralol HCl, 2-(tert-butylamino)-1-(7-ethyl-1-benzofuran-2-yl)ethan-1-ol] | 1.62 °C | −0.09 °C | 2.24 °C | – | – | – | – |
| CN1CCc2cc3c(cc2C1O)OCO3 (centres unmarked) [Hydrastinine HCl, 6-methyl-7,8-dihydro-5H-[1,3]dioxolo[4,5-g]isoquinolin-5-ol] | −0.49 °C | 6.10 °C | 2.46 °C | 0.04 °C | 164% | 141% | Kd (wild-type PAH [3]): 2.99 ± 3.2 µM; N (stoichiometry) (wild-type PAH [3]): 1.310 ± 0.2 sites; ΔG (wild-type PAH [3]): -7.55 kcal/mol; ΔH (wild-type PAH [3]): 2.29 ± 0.55 kcal/mol; −TΔS (wild-type PAH [3]): -9.82 kcal/mol; Kd (in words) (wild-type PAH [3]; recombinant PAH): low micromolar range |
| Nc1cc(N2CCCCC2)nc(N)[n+]1[O-] [Minoxidil, 2,6-diamino-4-(piperidin-1-yl)pyrimidine 1-oxide] | – | – | – | – | 127% | 96.1% | – |
| CCC[S+]([O-])c1ccc2[nH]c(NC(=O)OC)nc2c1 (centres unmarked) [Ricobendazole, methyl [5-(propane-1-sulfinyl)-1H-benzoimidazol-2-yl]-carbamate] | −0.48 °C | 2.57 °C | 2.19 °C | 3.39 °C | 154% | 104% | – |
| CCc1cccc2cc(C(O)CNC(C)(C)C)oc12 (centres unmarked) [S-Bufuralol HCl, 2-(tert-butylamino)-1-(7-ethyl-1-benzofuran-2-yl)ethan-1-ol] | 1.05 °C | 0.24 °C | 3.73 °C | 0.92 °C | – | – | – |
| CC(C)[C@H](N)C(=O)OCCOCn1cnc2c(=O)[nH]c(N)nc21 [Valacyclovir HCl, 2-[(2-amino-6-oxo-3H-purin-9-yl)methoxy]ethyl (2S)-2-amino-3-methylbutanoate] | – | – | – | – | 146% | 104% | – |
| CC(C)[C@H](N)C(=O)OCC(CO)OCn1cnc2c(=O)[nH]c(N)nc21 (stereo partly drawn) [Valganciclovir HCl, [2-[(2-amino-6-oxo-3H-purin-9-yl)methoxy]-3-hydroxypropyl] (2S)-2-amino-3-methylbutanoate] | – | – | – | – | – | – | PAH protein level (% of control) at 10 µM (wild-type PAH [4]; COS-7, 48 h): 138%; PAH protein level (% of control) at 10 µM (Arg261Gln (R261Q) PAH [5]; COS-7, 48 h): 141% |
